Key:
DLD-1 BRCA2-/- cells = assay: DLD-1 BRCA2-/- cell proliferation assay (CellTiter-Glo, 10 days incubation); type: cell-based; conditions: Homo sapiens, 240 h, DLD-1 BRCA2-/- cell line, total incubation period of 10 days, read-out: DLD1 BRCA2^-/- IC50
Excerpt: The anti-proliferative effect of the compounds on the human colorectal adenocarcinoma cell line DLD-1 BRCA2^-/- method.
• DLD-1 (purchased from ATCC, Cat. No.: CCL-221, Batch No.: 70033255); • RPMI1640 (purchased from Invitrogen, Cat. No.: 11875-085); • 0.25% Trypsin-EDTA (purchased from Invitrogen, Cat. No.: 25200-072); • Penicillin-Streptomycin solution (purchased from Hyclone, Cat. No.: SV30010); • FBS (purchased from BI, Cat. No.: 04-002-1A); • DMSO (purchased from Sigma, Cat. No.: D4540-1L); • 96-well plate (purchased from Corning, Cat. No.: CLS3903); • CellTiter-Glo reagent (purchased from Promega, Cat. No.: G7558).
The anti-proliferative effect of the compounds on a human colorectal adenocarcinoma cell line was evaluated using an ATP quantification method, wherein the measured activity correlates well with the number of viable cells. The genetically edited cell line DLD-1 BRCA2^-/- was cultured in RPMI 1640 medium (Invitrogen, 11875-085) supplemented with 10% (v/v) fetal bovine serum (BI, 04-002-1A). The cell line was cultured according to the standard instructions of the American Type Culture Collection (ATCC) and identified via short tandem repeat (STR) genotyping.
In the proliferation assay, cells were harvested and resuspended in cell culture medium. Cell density was determined using a cell counter. An appropriate volume of cell suspension was aspirated from the centrifuge tube to prepare a plating working solution (150 cells/100 µL for the DLD-1 BRCA2^-/- cell line). 100 µL of the cell suspension was seeded into each well of a 96-well plate (Corning, 3603) and incubated overnight in an incubator. The diluted test compound solutions were added to the wells. On the fourth and seventh days of compound incubation, the medium was replaced with fresh culture medium, and the compounds were re-administered, for a total incubation period of 10 days. Following incubation, the cell culture plates were removed and equilibrated to room temperature. 100 µL of CellTiter-Glo (Promega, G7558) was added to each well, and the plate was incubated at room temperature for 30 minutes. Data were read using a microplate reader (PerkinElmer, Enspire) in 96-well luminescence mode. Data analysis, curve fitting, and reporting were performed using the dose-response one-site 205 model of IDBS XL fit. Table 2: Proliferation inhibitory activity of compounds against DLD-1 BRCA2-/- cells

Polθ ATPase = molecular target: T1, Polθ ATPase (Homo sapiens, UniProt O75417); assay: Polθ ATPase activity assay (ADP-Glo Kinase Assay kit); type: biochemical; conditions: truncated POLQ-N protein (aa 1-894) 1 nM, 50 nM ssDNA, 50 µM ATP
T1 construct: purified truncated POLQ-N protein (aa 1-894, N-terminal 6-His tag); 6-His (N)
Description: The inhibitory efficiency of the compounds of formula (I) against Polθ ATPase activity was determined using the ADP-Glo Kinase Assay kit (Promega, V9101). […] The starting (final) concentration was 100 nM, followed by a 3-fold serial dilution for a total of 10 concentration points in duplicate (n=2). 5 μL of purified […], N-terminal 6-His tag) was added to each well. After centrifugation at 1000 rpm for 1 minute, the plate was incubated at 25°C for 10 minutes. 5 μL of substrate reaction solution (containing ATP & ssDNA) was added to each well, and the reaction was carried out at 25°C for 60 minutes. 5 μL of ADP-Glo Reagent was added to each well. After centrifugation at 1000 rpm for 1 minute, the plate was incubated at 25°C for 40 minutes. 10 μL of detection solution was added to each well. After centrifugation at 1000 rpm for 1 minute, the plate was incubated at 25°C for 40 minutes. Luminescence signals were recorded using a microplate reader (BMG, PHERAstar FSX). The final reaction system contained 1 nM of POLQ-N enzyme; 50 nM of ssDNA ([NT]); 50 μM of ATP; and 1% DMSO. The inhibition percentage (%) of the compound at each concentration was calculated using the RFU values normalized against the control wells within each assay plate. Table 1: Inhibitory activity of compounds against Polθ ATPase

[1] = system: Theta-mediated end joining (TMEJ) process in HEK293T cells; assay: TMEJ reporter assay (NanoGlo luciferase); type: cell-based; conditions: Homo sapiens, HEK-293T, HEK293T cells electroporated with TMEJ substrate, 24 hours
Description: The inhibitory effect of the compounds on the Theta-mediated end joining (TMEJ) process was evaluated.
(1) HEK293T cells were cultured in DMEM supplemented with 10% heat-inactivated fetal bovine serum (FBS) and 1% penicillin-streptomycin (PS). (2) Prior to startup, the Neon transfection system was disinfected, and E2 and R buffers were equilibrated to room temperature. (3) Culture medium without antibiotics was pre-warmed. (4) Cells in the flask reaching 80-90% confluency were trypsinized, neutralized with culture medium, centrifuged, and counted. (5) For transfection using a 100 µL electroporation tip, 2 × 10^6 cells were taken, washed once with DPBS (without Mg^2+ and Ca^2+), centrifuged at 1000 rpm for 5 min, and the supernatant was discarded. The number of cells and volume may be increased as required. (6) The Neon system was set up; a Neon tube was inserted into the Neon pipette and E2 buffer was added. (7) 10 µg of TMEJ substrate was added to 100 µL of R solution; the volume may be increased as required. (8) Cells were resuspended in DNA buffer, and electroporation was initiated according to the following parameters:
(9) The cells were loaded into antibiotic-free culture medium and mixed gently. (10) Steps (8)-(9) were repeated as necessary, and cells were seeded into 384-well plates at a density of 40,000 cells/well in 40 µL of culture medium. (11) The plates were incubated in a humidified CO2 incubator at 37°C for 24 hours. (12) NanoGlo reagent was warmed to room temperature, and NanoGlo buffer was mixed with the substrate at a ratio of 50:1. (13) The cell culture plates were equilibrated at room temperature for 10 minutes. (14) 40 µL of NanoGlo substrate buffer was added to each well, followed by shaking at 300 rpm for 3 minutes protected from light. (15) Signals were read via a BMG PHERAstar FSX.

T1 sequence (O75417 1-894): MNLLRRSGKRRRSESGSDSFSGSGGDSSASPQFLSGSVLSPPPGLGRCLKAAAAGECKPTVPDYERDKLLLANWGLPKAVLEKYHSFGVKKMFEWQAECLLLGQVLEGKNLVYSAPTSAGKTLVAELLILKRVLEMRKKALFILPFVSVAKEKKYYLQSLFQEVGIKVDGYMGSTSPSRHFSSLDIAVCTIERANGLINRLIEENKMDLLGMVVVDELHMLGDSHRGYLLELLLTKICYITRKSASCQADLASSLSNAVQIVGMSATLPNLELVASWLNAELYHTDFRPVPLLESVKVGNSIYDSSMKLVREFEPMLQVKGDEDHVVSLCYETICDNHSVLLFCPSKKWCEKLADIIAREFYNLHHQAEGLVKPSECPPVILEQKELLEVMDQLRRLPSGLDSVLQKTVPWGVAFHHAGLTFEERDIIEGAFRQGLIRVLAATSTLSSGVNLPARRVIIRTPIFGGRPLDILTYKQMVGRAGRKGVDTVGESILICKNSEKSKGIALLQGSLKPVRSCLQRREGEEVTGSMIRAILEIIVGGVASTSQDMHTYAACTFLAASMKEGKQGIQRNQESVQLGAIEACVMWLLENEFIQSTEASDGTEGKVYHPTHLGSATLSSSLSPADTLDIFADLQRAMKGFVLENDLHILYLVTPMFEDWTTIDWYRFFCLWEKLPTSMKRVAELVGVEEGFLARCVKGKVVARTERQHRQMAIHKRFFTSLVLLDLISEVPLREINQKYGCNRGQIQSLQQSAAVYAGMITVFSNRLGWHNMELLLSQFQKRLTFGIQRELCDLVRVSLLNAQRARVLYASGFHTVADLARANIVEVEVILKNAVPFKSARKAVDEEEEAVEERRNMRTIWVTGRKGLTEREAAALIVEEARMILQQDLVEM

Structure (SMILES)	IC50 (DLD-1 BRCA2-/- cells) [nM]	IC50 (Polθ ATPase; class symbols) [nM]	IC50 (Polθ ATPase; specific values) [nM]	IC50 [1] [nM]
COc1ccc(C(F)F)cc1-c1cc(C)ccc1C(=O)NS(=O)(=O)Cc1ccc([C@H](C)OC)cc1 [cpd-3, (S)-5'-(difluoromethyl)-2'-methoxy-N-((4-(1-methoxyethyl)benzyl)sulfonyl)-5-methyl-[1,1'-biphenyl]-2-carboxamide]	24	≤ 2	0.71	–
COc1cnc(C(F)F)cc1-c1cc(C)ncc1C(=O)NS(=O)(=O)Cc1ccc([C@H](C)OC)cc1 [cpd-6, (S)-2'-(Difluoromethyl)-5'-methoxy-N-((4-(1-methoxyethyl)benzyl)sulfonyl)-6-methyl-[4,4'-bipyridine]-3-carboxamide]	189	≤ 2	0.6	–
COc1cnc(C(F)F)cc1-c1cc(C)ccc1C(=O)NS(=O)(=O)Cc1ccc([C@@H](C)OC)cc1 [cpd-8, (R)-2-(2-(Difluoromethyl)-5-methoxypyridin-4-yl)-N-((4-(1-methoxyethyl)benzyl)sulfonyl)-4-methylbenzamide]	57	≤ 2	0.72	2
COc1ccc(C(F)F)cc1-c1cc(Cc2nnc(C)o2)ccc1C(=O)NS(=O)(=O)Cc1ccc(C(C)C)cc1 [cpd-13, 5'-(Difluoromethyl)-N-((4-isopropylbenzyl)sulfonyl)-2'-methoxy-5-((5-methyl-1,3,4-oxadiazol-2-yl)methyl)-[1,1'-biphenyl]-2-carboxamide]	202	≤ 2	0.88	–
COc1ccc(C(F)F)cc1-c1cc(C)ccc1C(=O)NS(=O)(=O)Cc1ccc(C(C)OC)nc1 (stereo not drawn) [cpd-20, 5'-(Difluoromethyl)-2'-methoxy-N-(((6-(1-methoxyethyl)pyridin-3-yl)methyl)sulfonyl)-5-methyl-[1,1'-biphenyl]-2-carboxamide]	–	≤ 2	1.4	–
[2H]C([2H])([2H])O[C@@H](C)c1ccc(CS(=O)(=O)NC(=O)c2ccc(C([2H])([2H])[2H])cc2-c2nc(C(F)F)c(F)cc2OC)cc1 [cpd-23, (S)-2-(6-(Difluoromethyl)-5-fluoro-3-methoxypyridin-2-yl)-N-((4-(1-(methoxy-d3)ethyl)benzyl)sulfonyl)-4-(methyl-d3)benzamide]	22	–	–	–
[2H]C([2H])([2H])O[C@@H](C)c1ccc(CS(=O)(=O)NC(=O)c2ccc(C([2H])([2H])[2H])cc2-c2cc(C(F)F)c(F)nc2OC)cc1 [cpd-24, (S)-2-(5-(Difluoromethyl)-6-fluoro-2-methoxypyridin-3-yl)-N-((4-(1-(methoxy-d3)ethyl)benzyl)sulfonyl)-4-(methyl-d3)benzamide]	33	–	–	–

Now from value to compound, other results behind:

IC50 (DLD-1 BRCA2-/- cells) [nM]	IC50 (Polθ ATPase; class symbols) [nM]	IC50 (Polθ ATPase; specific values) [nM]	Structure (SMILES)	IC50 [1] [nM]
17	≤ 2	0.65	COc1cnc(C(F)F)cc1-c1cc(C)ccc1C(=O)NS(=O)(=O)Cc1ccc([C@H](C)OC)cc1 [cpd-4, (S)-2-(2-(Difluoromethyl)-5-methoxypyridin-4-yl)-N-((4-(1-methoxyethyl)benzyl)sulfonyl)-4-methylbenzamide]	1
27	≤ 2	0.5	COc1ccc(C(F)F)cc1-c1cc(C)ncc1C(=O)NS(=O)(=O)Cc1ccc([C@H](C)OC)cc1 [cpd-5, (S)-4-(5-(Difluoromethyl)-2-methoxyphenyl)-N-((4-(1-methoxyethyl)benzyl)sulfonyl)-6-methylnicotinamide]	1
59	≤ 2	0.71	COc1ccc(C(F)F)cc1-c1cc(C)ccc1C(=O)NS(=O)(=O)Cc1ccc([C@@H](C)OC)cc1 [cpd-7, (R)-5'-(Difluoromethyl)-2'-methoxy-N-((4-(1-methoxyethyl)benzyl)sulfonyl)-5-methyl-[1,1'-biphenyl]-2-carboxamide]	–
63	≤ 2	0.52	COc1ccc(C(F)F)cc1-c1cc(C)ncc1C(=O)NS(=O)(=O)Cc1ccc([C@@H](C)OC)cc1 [cpd-9, (R)-4-(5-(Difluoromethyl)-2-methoxyphenyl)-N-((4-(1-methoxyethyl)benzyl)sulfonyl)-6-methylnicotinamide]	–
514	≤ 2	1.1	COc1cnc(C(F)F)cc1-c1cc(C)ncc1C(=O)NS(=O)(=O)Cc1ccc([C@@H](C)OC)cc1 [cpd-10, (R)-2'-(Difluoromethyl)-5'-methoxy-N-((4-(1-methoxyethyl)benzyl)sulfonyl)-6-methyl-[4,4'-bipyridine]-3-carboxamide]	–
99	≤ 2	0.53	COc1ccc(C(F)F)cc1-c1cc(CC(=O)N(C)C)ccc1C(=O)NS(=O)(=O)Cc1ccc(C(C)C)cc1 [cpd-11, 5'-(Difluoromethyl)-5-(2-(dimethylamino)-2-oxoethyl)-N-((4-isopropylbenzyl)sulfonyl)-2'-methoxy-[1,1'-biphenyl]-2-carboxamide]	2
70	≤ 2	1	COc1ccc(C(F)F)cc1-c1cc(CC(=O)N(C)C2CC2)ccc1C(=O)NS(=O)(=O)Cc1ccc(C(C)C)cc1 [cpd-12, 5-(2-(Cyclopropyl(methyl)amino)-2-oxoethyl)-5'-(difluoromethyl)-N-((4-isopropylbenzyl)sulfonyl)-2'-methoxy-[1,1'-biphenyl]-2-carboxamide]	–
108	≤ 2	1.6	COc1ccc(C(F)F)cc1-c1cc(C)ccc1C(=O)NS(=O)(=O)Cc1ccc(C(OC)C(F)(F)F)cc1 (stereo not drawn) [cpd-14, 5'-(Difluoromethyl)-2'-methoxy-5-methyl-N-((4-(2,2,2-trifluoro-1-methoxyethyl)benzyl)sulfonyl)-[1,1'-biphenyl]-2-carboxamide]	–
154	–	–	COc1ccc(C(F)F)cc1-c1cc(C)ccc1C(=O)NS(=O)(=O)Cc1ccc(COC(F)F)cc1 [cpd-15, N-((4-((Difluoromethoxy)methyl)benzyl)sulfonyl)-5'-(difluoromethyl)-2'-methoxy-5-methyl-[1,1'-biphenyl]-2-carboxamide]	–

Source: EP4782434A1, “N-SULFONYL CARBOXAMIDE COMPOUND, AND PREPARATION METHOD THEREFOR AND USE THEREOF” (Nutshell Therapeutics (Shanghai) Co., Ltd., priority 2023, dated 2025)
